Our source for the IC50 values is patent US9809574B2, “Isoindoline or isoquinoline compounds, a process for their preparation and pharmaceutical compositions containing them” (LES LABORATOIRES SERVIER, priority 2013, dated 2017).

Structures are written as SMILES. Counter-ions that a name gives are not always drawn.

The target in assay [1] is Bcl-2 protein (histag-Bcl-2, UniProtKB P10415) (Homo sapiens (Human), UniProt P10415). The assay is described as follows: Inhibition of Bcl-2 by the fluorescence polarisation technique. In kind it is binding. The settings on record: fluorescence polarisation test; incubation for 2 hours; read-out: IC50 (nM) Bcl-2 FP. The text has this:
For partial inhibitors, the percentage fluorescence polarisation inhibition for a given concentration of the test compound is indicated.
For orientation: Fluorescence polarisation rises when a labelled molecule tumbles more slowly, as on binding a larger partner.

The test system of assay [2] is RS4; 11 leukaemia cell line. The assay is described as follows: In vitro cytotoxicity, Microculture Tetrazolium Assay (MTT). The assay is classed as cell-based. To be noted: 11 cells exposed for 48 hours. The protocol:
The cytotoxicity studies were carried out on the RS4; 11 leukaemia cell line and on H146 small Cell Lung Carcinoma cell line. The cells are distributed onto microplates and exposed to the test compounds for 48 hours. The cell viability is then quantified by a colorimetric assay, the Microculture Tetrazolium Assay (Cancer Res., 1987, 47, 939-942).

Sequence of Bcl-2 protein (P10415 whole entry): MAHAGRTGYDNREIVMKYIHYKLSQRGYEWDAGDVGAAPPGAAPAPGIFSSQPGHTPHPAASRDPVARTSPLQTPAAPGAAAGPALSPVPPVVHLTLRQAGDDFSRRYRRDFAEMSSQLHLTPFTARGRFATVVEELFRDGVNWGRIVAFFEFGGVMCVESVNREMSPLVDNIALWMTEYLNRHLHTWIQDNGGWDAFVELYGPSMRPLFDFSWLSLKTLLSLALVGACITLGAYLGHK

`Cc1c(C(=O)N(C)c2ccccc2)cc(-c2cc3c(cc2C(=O)N2Cc4ccccc4C[C@H]2C)CN(C(=O)Oc2ccc4[nH]ccc4c2)CC3)n1C` [Example 789, 1H-Indol-5-yl 6-{1,5-dimethyl-4-[methyl(phenyl)carbamoyl]-1H-pyrrol-2-yl}-7-[(3R)-3-methyl-1,2,3,4-tetrahydroisoquinoline-2-carbonyl]-1,2,3,4-tetrahydroisoquinoline-2-carboxylate]: the IC50 (usually the concentration that inhibits the measured activity by half) in assay [1] amounted to 8.9 nM; in assay [2] (Homo sapiens), 14 nM.

Take `Cc1c(C(=O)N(C)c2ccc(O)cc2)cc(-c2cc3c(cc2C(=O)N2Cc4ccccc4C[C@H]2C)CN(C(=O)OC2CCCCC2)CC3)n1C` [Example 790, Cyclohexyl 6-{4-[(4-hydroxyphenyl)(methyl)carbamoyl]-1,5-dimethyl-1H-pyrrol-2-yl}-7-[(3R)-3-methyl-1,2,3,4-tetrahydroisoquinoline-2-carbonyl]-1,2,3,4-tetrahydroisoquinoline-2-carboxylate]: the IC50 in assay [1] is 3.4 nM; in assay [2] (Homo sapiens), 20 nM.

Take `Cc1c(C(=O)N(C)c2ccc(O)cc2)cc(-c2cc3c(cc2C(=O)N2Cc4ccccc4C[C@H]2CN2CCOCC2)CN(C(=O)OC2CCCCC2)CC3)n1C` [Example 791, Cyclohexyl 6-{4-[(4-hydroxyphenyl)(methyl)carbamoyl]-1,5-dimethyl-1H-pyrrol-2-yl}-7-[(3S)-3-(morpholin-4-ylmethyl)-1,2,3,4-tetrahydroisoquinoline-2-carbonyl]-1,2,3,4-tetrahydroisoquinoline-2-carboxylate]: the IC50 amounted to 2.8 nM in assay [1] and 54 nM in assay [2] (Homo sapiens).

For the compound `Cc1c(C(=O)N(C)c2ccc(O)cc2)cc(-c2cc3c(cc2C(=O)N2Cc4ccccc4C[C@H]2C)CN(C(=O)NC2CCCCC2)CC3)n1C` [Example 792, N-Cyclohexyl-6-{4-[(4-hydroxyphenyl)(methyl)carbamoyl]-1,5-dimethyl-1H-pyrrol-2-yl}-7-[(3R)-3-methyl-1,2,3,4-tetrahydroisoquinoline-2-carbonyl]-1,2,3,4-tetrahydroisoquinoline-2-carboxamide], the IC50 in assay [1] worked out at 4.6 nM; in assay [2] (Homo sapiens), 21 nM.

In the case of `Cc1c(C(=O)N(C)c2ccc(O)cc2)cc(-c2cc3c(cc2C(=O)N2Cc4ccccc4C[C@H]2CN2CCOCC2)CN(C(=O)NC2CCCCC2)CC3)n1C` [Example 793, N-Cyclohexyl-6-{4-[(4-hydroxyphenyl)(methyl)carbamoyl]-1,5-dimethyl-1H-pyrrol-2-yl}-7-[(3S)-3-(morpholin-4-ylmethyl)-1,2,3,4-tetrahydroisoquinoline-2-carbonyl]-1,2,3,4-tetrahydroisoquinoline-2-carboxamide], the IC50 in assay [1] is 4.4 nM; in assay [2] (Homo sapiens), 92 nM.

As to `Cc1c(C(=O)N(C)c2ccc(O)cc2)cc(-c2cc3c(cc2C(=O)N2Cc4ccccc4C[C@H]2CN2CCOCC2)CN(C(=O)CC2CCCCC2)CC3)n1C` [Example 794, 5-[2-(2-Cyclohexylacetyl)-7-[(3S)-3-(morpholin-4-ylmethyl)-1,2,3,4-tetrahydroisoquinoline-2-carbonyl]-1,2,3,4-tetrahydroisoquinolin-6-yl]-N-(4-hydroxyphenyl)-N,1,2-trimethyl-1H-pyrrole-3-carboxamide], the IC50 in assay [1] is 4.6 nM; in assay [2] (Homo sapiens), 70 nM.

Turning to `Cc1c(C(=O)N(C)c2ccc(O)cc2)cc(-c2cc3c(cc2C(=O)N2Cc4ccccc4C[C@H]2C)CN(C(=O)CC2CCCCC2)CC3)n1C` [Example 795, 5-[2-(2-Cyclohexylacetyl)-7-[(3R)-3-methyl-1,2,3,4-tetrahydroisoquinoline-2-carbonyl]-1,2,3,4-tetrahydroisoquinolin-6-yl]-N-(4-hydroxyphenyl)-N,1,2-trimethyl-1H-pyrrole-3-carboxamide], the IC50 in assay [1] amounted to 5.3 nM; in assay [2] (Homo sapiens) it was 32 nM.

On to `Cc1c(C(=O)N(C)c2ccc(O)cc2)cc(-c2cc3c(cc2C(=O)N2Cc4ccccc4C[C@H]2CN2CCOCC2)CN(C(=O)OC2CCCC2)CC3)n1C` [Example 796, Cyclopentyl 6-{4-[(4-hydroxyphenyl)(methyl)carbamoyl]-1,5-dimethyl-1H-pyrrol-2-yl}-7-[(3S)-3-(morpholin-4-ylmethyl)-1,2,3,4-tetrahydroisoquinoline-2-carbonyl]-1,2,3,4-tetrahydroisoquinoline-2-carboxylate], for which the IC50 in assay [1] is 6.2 nM; in assay [2] (Homo sapiens), 48 nM.

As to `Cc1c(C(=O)N(C)c2ccc(O)cc2)cc(-c2cc3c(cc2C(=O)N2Cc4ccccc4C[C@H]2CN2CCOCC2)CN(C(=O)O[C@@H]2C[C@H](C)CC[C@H]2C(C)C)CC3)n1C` [Example 797, (1R,2S,5R)-5-Methyl-2-(propan-2-yl)cyclohexyl 6-{4-[(4-hydroxyphenyl)(methyl)carbamoyl]-1,5-dimethyl-1H-pyrrol-2-yl}-7-[(3S)-3-(morpholin-4-ylmethyl)-1,2,3,4-tetrahydroisoquinoline-2-carbonyl]-1,2,3,4-tetrahydroisoquinoline-2-carboxylate], the IC50 in assay [1] was 21 nM; in assay [2] (Homo sapiens) it was 125 nM.

With `Cc1c(C(=O)N(C)c2ccc(O)cc2)cc(-c2cc3c(cc2C(=O)N2Cc4ccccc4C[C@H]2CN2CCOCC2)CN(C(=O)CC24CC5CC(CC(C5)C2)C4)CC3)n1C` [Example 798, 5-{2-[2-(Adamantan-1-yl)acetyl]-7-[(3S)-3-(morpholin-4-ylmethyl)-1,2,3,4-tetrahydroisoquinoline-2-carbonyl]-1,2,3,4-tetrahydroisoquinolin-6-yl}-N-(4-hydroxyphenyl)-N,1,2-trimethyl-1H-pyrrole-3-carboxamide], the IC50 came out at 9.1 nM in assay [1] and 76 nM in assay [2] (Homo sapiens).

For `Cc1c(C(=O)N(C)c2ccc(O)cc2)cc(-c2cc3c(cc2C(=O)N2Cc4ccccc4C[C@H]2C)CN(C(=O)CN2CCCCC2)CC3)n1C` [Example 799, N-(4-Hydroxyphenyl)-N,1,2-trimethyl-5-{7-[(3R)-3-methyl-1,2,3,4-tetrahydroisoquinoline-2-carbonyl]-2-[2-(piperidin-1-yl)acetyl]-1,2,3,4-tetrahydroisoquinolin-6-yl}-1H-pyrrole-3-carboxamide], the results for the IC50 in assay [1] and in assay [2] (Homo sapiens) were 15 nM and more than 150 nM, respectively.

In the case of `Cc1c(C(=O)N(C)c2ccc(O)cc2)cc(-c2cc3c(cc2C(=O)N2Cc4ccccc4C[C@H]2C)CN(C(=O)OC2CCC(NC(=O)OC(C)(C)C)CC2)CC3)n1C` (stereo partly drawn) [Example 800, (1r,4r)-4-{[(tert-Butoxy)carbonyl]amino}cyclohexyl 6-{4-[(4-hydroxyphenyl)(methyl)carbamoyl]-1,5-dimethyl-1H-pyrrol-2-yl}-7-[(3R)-3-methyl-1,2,3,4-tetrahydroisoquinoline-2-carbonyl]-1,2,3,4-tetrahydroisoquinoline-2-carboxylate], the values for the concentration for half-maximal inhibition (IC50) in assay [1] and in assay [2] were 2 nM and 3.2 nM, respectively.

Turning to `Cc1c(C(=O)N(C)c2ccc(O)cc2)cc(-c2cc3c(cc2C(=O)N2Cc4ccccc4C[C@H]2C)CN(C(=O)OC2CCC(N)CC2)CC3)n1C` (stereo partly drawn) [Example 801, (1r,4r)-4-Aminocyclohexyl 6-{4-[(4-hydroxyphenyl)(methyl)carbamoyl]-1,5-dimethyl-1H-pyrrol-2-yl}-7-[(3R)-3-methyl-1,2,3,4-tetrahydroisoquinoline-2-carbonyl]-1,2,3,4-tetrahydroisoquinoline-2-carboxylate hydrochloride], the IC50 in assay [1] was 2.7 nM; in assay [2], more than 150 nM.
